Reference: ChEMBL document CHEMBL3885881, “DrugMatrix”

Organism: Rattus norvegicus
Experiment: DrugMatrix - Regimen: Daily Repeat
Format: toxicity, organism-based, Sprague-Dawley
Parameters: regimen Daily Repeat, gender Male, age 6-8 weeks
Conditions: in vivo, po, route oral GAVAGE, […]; for ABSOLUTE BASOPHIL / ABSOLUTE EOSINOPHIL / ABSOLUTE LYMPHOCYTE / ABSOLUTE MONOCYTE / ABSOLUTE SEGMENTED NEUTROPHIL / BASOPHIL / EOSINOPHIL / ERYTHROCYTE COUNT / HEMATOCRIT / HEMOGLOBIN / LEUKOCYTE COUNT / LYMPHOCYTE / MEAN CORPUSCULAR HEMOGLOBIN / MEAN CORPUSCULAR HEMOGLOBIN CONCENTRATION / MEAN CORPUSCULAR VOLUME / MONOCYTE / NEUTROPHIL / NUCLEATED RED BLOOD CELLS / PLATELET COUNT: tissue Blood; for ALANINE AMINOTRANSFERASE / ALBUMIN / ALKALINE PHOSPHATASE / ASPARTATE AMINOTRANSFERASE / BLOOD UREA NITROGEN / CARBON DIOXIDE / CHLORIDE / CHOLESTEROL / CREATINE PHOSPHOKINASE / CREATININE / GLUCOSE / LACTATE DEHYDROGENASE / LIPASE / PHOSPHORUS / POTASSIUM / SODIUM / TOTAL BILIRUBIN / TOTAL PROTEIN / URIC ACID: tissue Plasma
[1] = 0 mg/kg, 72 h, dose level Control, time 3 day
[2] = 0 mg/kg, 120 h, dose level Control, time 5 day
[3] = 30 mg/kg, 72 h, dose level Low, time 3 day

CCCCC(=O)N(Cc1ccc(-c2ccccc2-c2nnn[nH]2)cc1)[C@H](C(=O)O)C(C)C
ABSOLUTE BASOPHIL [1]: 0 CELLS/uL
ABSOLUTE EOSINOPHIL [1]: 13.67 CELLS/uL
ABSOLUTE LYMPHOCYTE [1]: 10069.5 CELLS/uL
ABSOLUTE MONOCYTE [1]: 50 CELLS/uL
ABSOLUTE SEGMENTED NEUTROPHIL [1]: 516.83 CELLS/uL
BASOPHIL [1]: 0%
EOSINOPHIL [1]: 0.17%
ERYTHROCYTE COUNT [1]: 5.44 x10E6/uL
HEMATOCRIT [1]: 33.88%
HEMOGLOBIN [1]: 13.23 G/DL
LEUKOCYTE COUNT [1]: 10.65 x10E3/uL
LYMPHOCYTE [1]: 94.67%
MEAN CORPUSCULAR HEMOGLOBIN [1]: 24.37 pg
MEAN CORPUSCULAR HEMOGLOBIN CONCENTRATION [1]: 39.05 G/DL
MEAN CORPUSCULAR VOLUME [1]: 62.38 fL
MONOCYTE [1]: 0.67%
NEUTROPHIL [1]: 4.5%
NUCLEATED RED BLOOD CELLS [1]: 0.33 /100WBC
PLATELET COUNT [1]: 414.5 x10E3/uL
ALANINE AMINOTRANSFERASE [1]: 72 u/L
ALBUMIN [1]: 3.75 G/DL
ALKALINE PHOSPHATASE [1]: 375 u/L
ASPARTATE AMINOTRANSFERASE [1]: 87.5 u/L
BLOOD UREA NITROGEN [1]: 14 mg/dL
CARBON DIOXIDE [1]: 27.5 mmol/L
CHLORIDE [1]: 95.83 MEQ/L
CHOLESTEROL [1]: 68.5 mg/dL
CREATINE PHOSPHOKINASE [1]: 284.33 u/L
CREATININE [1]: 0.16 mg/dL
GLUCOSE [1]: 156.67 mg/dL
LACTATE DEHYDROGENASE [1]: 101.83 u/L
LIPASE [1]: 9.67 u/L
PHOSPHORUS [1]: 10.33 mg/dL
POTASSIUM [1]: 5.22 MEQ/L
SODIUM [1]: 137.67 MEQ/L
TOTAL BILIRUBIN [1]: 0.13 mg/dL
TOTAL PROTEIN [1]: 5.43 G/DL
URIC ACID [1]: 0.8 mg/dL
ABSOLUTE BASOPHIL [2]: 0 CELLS/uL
ABSOLUTE EOSINOPHIL [2]: 20.67 CELLS/uL
ABSOLUTE LYMPHOCYTE [2]: 11518.33 CELLS/uL
ABSOLUTE MONOCYTE [2]: 47 CELLS/uL
ABSOLUTE SEGMENTED NEUTROPHIL [2]: 614 CELLS/uL
BASOPHIL [2]: 0%
EOSINOPHIL [2]: 0.17%
ERYTHROCYTE COUNT [2]: 5.61 x10E6/uL
HEMATOCRIT [2]: 34.25%
HEMOGLOBIN [2]: 13.38 G/DL
LEUKOCYTE COUNT [2]: 12.2 x10E3/uL
LYMPHOCYTE [2]: 94.33%
MEAN CORPUSCULAR HEMOGLOBIN [2]: 23.83 pg
MEAN CORPUSCULAR HEMOGLOBIN CONCENTRATION [2]: 39.08 G/DL
MEAN CORPUSCULAR VOLUME [2]: 61.03 fL
MONOCYTE [2]: 0.33%
NEUTROPHIL [2]: 5.17%
NUCLEATED RED BLOOD CELLS [2]: 0 /100WBC
PLATELET COUNT [2]: 941.83 x10E3/uL
ALANINE AMINOTRANSFERASE [2]: 68.83 u/L
ALBUMIN [2]: 4.12 G/DL
ALKALINE PHOSPHATASE [2]: 492.67 u/L
ASPARTATE AMINOTRANSFERASE [2]: 83.33 u/L
BLOOD UREA NITROGEN [2]: 14 mg/dL
CARBON DIOXIDE [2]: 37 mmol/L
CHLORIDE [2]: 98.67 MEQ/L
CHOLESTEROL [2]: 56.5 mg/dL
CREATINE PHOSPHOKINASE [2]: 167.33 u/L
CREATININE [2]: 0.17 mg/dL
GLUCOSE [2]: 157.5 mg/dL
LACTATE DEHYDROGENASE [2]: 104.83 u/L
LIPASE [2]: 10 u/L
PHOSPHORUS [2]: 10.43 mg/dL
POTASSIUM [2]: 5.46 MEQ/L
SODIUM [2]: 143.87 MEQ/L
TOTAL BILIRUBIN [2]: 0.17 mg/dL
TOTAL PROTEIN [2]: 5.72 G/DL
URIC ACID [2]: 0.85 mg/dL
ABSOLUTE BASOPHIL [3]: 0 CELLS/uL
ABSOLUTE EOSINOPHIL [3]: 32 CELLS/uL
ABSOLUTE LYMPHOCYTE [3]: 7448.67 CELLS/uL
ABSOLUTE MONOCYTE [3]: 0 CELLS/uL
ABSOLUTE SEGMENTED NEUTROPHIL [3]: 586 CELLS/uL
BASOPHIL [3]: 0%
EOSINOPHIL [3]: 0.33%
ERYTHROCYTE COUNT [3]: 5.55 x10E6/uL
HEMATOCRIT [3]: 33.7%
HEMOGLOBIN [3]: 13.27 G/DL
LEUKOCYTE COUNT [3]: 8.07 x10E3/uL
LYMPHOCYTE [3]: 92.33%
MEAN CORPUSCULAR HEMOGLOBIN [3]: 23.9 pg
MEAN CORPUSCULAR HEMOGLOBIN CONCENTRATION [3]: 39.33 G/DL
MEAN CORPUSCULAR VOLUME [3]: 60.7 fL
MONOCYTE [3]: 0%
NEUTROPHIL [3]: 7.33%
NUCLEATED RED BLOOD CELLS [3]: 0.67 /100WBC
PLATELET COUNT [3]: 891 x10E3/uL
ALANINE AMINOTRANSFERASE [3]: 67.67 u/L
ALBUMIN [3]: 3.93 G/DL
ALKALINE PHOSPHATASE [3]: 446.33 u/L
ASPARTATE AMINOTRANSFERASE [3]: 94.33 u/L
BLOOD UREA NITROGEN [3]: 14.33 mg/dL
CARBON DIOXIDE [3]: 25 mmol/L
CHLORIDE [3]: 95.5 MEQ/L
CHOLESTEROL [3]: 77.67 mg/dL
CREATINE PHOSPHOKINASE [3]: 130 u/L
CREATININE [3]: 0.19 mg/dL
GLUCOSE [3]: 147 mg/dL
LACTATE DEHYDROGENASE [3]: 98 u/L
LIPASE [3]: 11.33 u/L
PHOSPHORUS [3]: 9.5 mg/dL
POTASSIUM [3]: 5.71 MEQ/L
SODIUM [3]: 138.1 MEQ/L
TOTAL BILIRUBIN [3]: 0.1 mg/dL
TOTAL PROTEIN [3]: 5.53 G/DL
URIC ACID [3]: 0.57 mg/dL
